# Measured values as given in PMC11079024, “Identification of a family of species-selective complex I inhibitors as potential anthelmintics” (Nature Communications, 2024).
# “And” between values parts separate entries of the source, which are not always exact repeats. Equal values may be shown once.
# Key:
# L1 P. pacificus (PS312) = experiment: Liquid development and viability assay, P. pacificus; format: cell-based, Pristionchus pacificus; details: liquid growth and development assay, 1 = like DMSO control, 0 = death
# From the text: Supplementary Figure 9. Class A, B, and C benzimidazoles inhibit complex I of several Clade V nematode species in vitro. […]
# against the in vitro complex I activity from C. elegans, C. briggsae, P. pacificus, and P. hermaphrodita […]
# L1 C. elegans (N2), C. briggsae (AF16), and P. pacificus (PS312) in a nematode liquid growth and development assay. The colour-coded scale denotes the viability of nematodes following drug treatment relative to DMSO controls; white/pale-yellow indicates nematode growth and viability similar to DMSO controls and red indicates nematode death and arrested development. Data are the mean of at least three biological replicates. Due to seemingly poor growth in liquid culture, P. hermaphrodita was not tested in the liquid viability and development assay.
# Supplementary Figure 9 (continued). Davie et al.
# [1] = tested on: C. elegans (N2) complex I (NADH:ubiquinone oxidoreductase); experiment: biochemical; format: biochemical; details: wild-type C. elegans mitochondria
# Outline: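 Activity expressed as percent of solvent control. Complex I rate came from DCIP reduction at 600 nm (initial linear slope, 15 min) with NADH and decylubiquinone as substrates, plus antimycin A and KCN, in pH 7.5 KPi/BSA buffer. Isolated, thrice freeze-thawed mitochondria used at 0.2 mg/mL.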
smiles,measurement,setting,value
Cc1nc2ccccc2n1Cc1ccc(Cl)cc1 [STK697993],viability score (0-1) relative to DMSO controls,L1 P. pacificus (PS312); 2 µM,1.000
same,viability score (0-1) relative to DMSO controls,L1 P. pacificus (PS312); 3.9 µM,1.000
same,viability score (0-1) relative to DMSO controls,L1 P. pacificus (PS312); 15.6 µM,0.943
same,viability score (0-1) relative to DMSO controls,L1 P. pacificus (PS312); 31.3 µM,0.0076
same,viability score (0-1) relative to DMSO controls,L1 P. pacificus (PS312); 62.5 µM,0.000
same,viability score (0-1) relative to DMSO controls,L1 P. pacificus (PS312); 125 µM,0.007
same,viability score (0-1) relative to DMSO controls,L1 P. pacificus (PS312); 250 µM,0.026
c1ccc2[nH]c(-c3cscn3)nc2c1 [Thiabendazole],percent (%) in vitro complex I activity relative to solvent control,"[1]; 0.125 µM, mean of replicates",102.109%
same,percent (%) in vitro complex I activity relative to solvent control,"[1]; 0.125 µM, single replicate",99.976% and 103.068% and 101.883% and 103.510%
same,percent (%) in vitro complex I activity relative to solvent control,"[1]; 0.313 µM, mean of replicates",98.029%
same,percent (%) in vitro complex I activity relative to solvent control,"[1]; 0.313 µM, single replicate",96.436% and 97.421% and 98.637% and 99.622%
same,percent (%) in vitro complex I activity relative to solvent control,"[1]; 0.625 µM, mean of replicates",100.000%
same,percent (%) in vitro complex I activity relative to solvent control,"[1]; 0.625 µM, single replicate",100.000%
same,percent (%) in vitro complex I activity relative to solvent control,"[1]; 1.5 µM, mean of replicates",94.806%
same,percent (%) in vitro complex I activity relative to solvent control,"[1]; 1.5 µM, single replicate",99.025% and 95.797% and 89.075% and 95.328%
same,percent (%) in vitro complex I activity relative to solvent control,"[1]; 3 µM, mean of replicates",103.387%
same,percent (%) in vitro complex I activity relative to solvent control,"[1]; 3 µM, single replicate",101.704% and 108.843% and 104.258% and 98.742%
same,percent (%) in vitro complex I activity relative to solvent control,"[1]; 15 µM, mean of replicates",102.027%
same,percent (%) in vitro complex I activity relative to solvent control,"[1]; 15 µM, single replicate",100.357% and 106.821% and 103.640% and 97.291%
same,percent (%) in vitro complex I activity relative to solvent control,"[1]; 37.5 µM, mean of replicates",98.201%
same,percent (%) in vitro complex I activity relative to solvent control,"[1]; 37.5 µM, single replicate",99.533% and 98.195% and 100.518% and 94.556%
same,percent (%) in vitro complex I activity relative to solvent control,"[1]; 75 µM, mean of replicates",97.767%
same,percent (%) in vitro complex I activity relative to solvent control,"[1]; 75 µM, single replicate",97.247% and 98.620% and 98.499% and 96.702%
